Values joined by “and” are separate entries in the source; they are usually repeats but may differ in a detail not shown here. Identical values can stand only once. Like-named read-outs stand apart in the source and are kept apart here.
Columns and labels:
Syrian Golden hamsters = test: In vivo serum cholesterol lowering in hamsters fed a cholesterol test diet; settings: for Serum Cholesterol Mean: 0.2% (w/w) in Cholesterol Test Diet for one week, equivalent to 100 mg/kg/day, groups of six, control mean 337; for inhibition in vivo at 100 mg/kg/day: Mesocricetus auratus, feed or water, 168 h, read-out: Percent Lowering of Cholesterol from Control Value Mean
Protocol: Syrian Golden hamsters were fed a cholesterol test diet made of 10% coconut oil and 0.12% cholesterol (by weight) in Purina 5001 Rodent Chow to induce hypercholesteriolemia.
After two weeks on the cholesterol test diet the hamsters were bled from the orbital sinium under light CO2 anesthesia. Serum was prepared and analyzed for cholesterol using a commercial test kit (Cholesterol High Performance, Single Vial™, product of Boehringer Mannheim Corp., Indianapolis, IN, USA). The hamsters were separated into groups of six animals, such that each group had approximately the same mean serum cholesterol levels. Selected compounds of the invention were incorporated into the Cholesterol Test Diet at 0.2% (w/w) and fed to the hamsters for one week. A control group of hamsters continued on the Cholesterol Test Diet during the same one-week period. The dose of test compounds of the invention was equivalent to 100 mg/kg/day based on the weight of the hamsters and their diet consumption. Upon completion of the test period, the animals were bled and serum cholesterol determined as above.
Mean serum cholesterol values from the test hamsters were compared to values from the control group and tested for significance at the Z.05 level using Dunnett's test.

[1] = tested on: human LDL receptor promoter; test: in vitro Luciferase Activity Test (LDL receptor promoter-luciferase reporter in recombinant CHO cells); type: cell-based; set-up: MED: unit not given here; settings: for Emax: Homo sapiens, CHO, read-out: MA%; for Emax / MA%: maximum activity (%) over control; for MED: minimum effective dose (molar concentration, unit not given), 24 hr, assay medium with 0.5 µg/ml 25-hydroxycholesterol; for RED: relative effective dose compared to compound of Example 4, below one = more active
Protocol: A 1546 base pair sequence of the human LDL receptor promoter was amplified using the polymerase chain reaction. A reaction mixture containing 20 pMoles each of the synthetic oligonucleotides 5'-[…]-3' (Seq. I.D. No: 1) and 5'-AAG-[…]-3', (Seq. I.D. No:2) 1 µg human genomic DNA purified from the adenocarcinoma cell line P3UCLA, 200 µM each of dATP, dGTP, dCTP, and TTP, 2.5 units of Taq DNA polymerase, 10mM Tris-HCI pH 8.3, 50 mM KCI, […], 0.1% gelatin in a final volume of 100 µl was subjected to 30 cycles of 15 sec at 96°C, 30 sec at 55°C, and 1 min at 72°C. The material was subject to gel electrophoresis on a 1% agarose gel and the 1546 base pair band was isolated and restriction enzyme digested with Hind III and Nde I. This fragment was ligated into the plasmid pSP72 (ProMega Biotech), which had previously been restriction enzyme nuclease digested with Hind III and Nde I. The resulting vector, pNLDLRP, was restriction endonulease digested with Ndel and Hind III and the material was again run on a 1% agarose gel to reisolate the 1546 bp LDL receptor sequence.
Plasmid vector PSv2 was constructed by digesting plasmid pSv2-globin with Hind III and Bgl II then ligating an Nrul-Xhol linker into the vector. Plasmid pSv2 globin is disclosed in U.S. Patent No. 4,775,624, the entire teaching of which is herein incorporated by reference. The linker contained the following sequences: [formula] (Seq. I.D. No: 3), and [formula] ' (Seq. I.D. No:4).
The resulting vector was designated pSv2-H NXB because it contained a […], an Nrul site, an Xhol site and a Bgl site. The Hind III-Bgl II fragment of plasmid pAlc4(NRRL B-18783), which contains the firefly luciferase gene, was then ligated into the Hin III-Bgl site of plasmid pSv2-HNXB. A neomycin resistance-conforming gene was then ligated into the Bam HI site of the resultant plasmid to form plasmid pSv2.
A 1546 base pair fragment was isolated and cloned into a Ndel and Hind III (partial) restriction digested vector pSv2 containing the firefly luciferase reporter gene and a gene for neomycin resistance. The resulting vector, pLDL-Luc1 Neo-10, contains the human LDL receptor promoter driving expression of the firefly luciferase gene, a gene coding for neomycin resistance, ampicillin resistant marker and an origin of replication.
Plasmid pLDL-Luc 1 Neo-10 was used to stably transfect Chinese Hamster Ovary cells using a Lipofection Reagent kit and procedure from Gibco BRL Research Products Division Life Technologies Inc. Transformants were selected by picking individual colonies grown in Dulbecco's modified Eagle's medium supplimented with 10% fetal bovine serum and containing 500 µg per ml […]. […] Clone S27/B30 was used for subsequent screening.
In developing a cell based screen it is important to have a negative control. The viral SV40 promoter is ideal for this purpose in that it has a number of SP1 elements that enhance gene transcription. These elements are not under the control of end product repression; but they do have a high degree of sequence homology with the 16 base pair long sterol response element found in the LDL receptor promoter. The SV40 promoter should therefore be a sensitive mechanism to screen out agents that induce nonspecific transcription.
Chinese Hamster Ovary cells were stably cotransfected with a vector pSV2AL-A 5' containing the SV40 promoter driving expression of the firefly luciferase gene and a second vector pSV2 NeoBam containing a neomycin resistant marker. Transfections were carried out using the Lipofectin Reagent kit and procedure from Gibco BRL Research Products Division Life Technologies Inc. Transformants were selected by picking individual colonies grown in Dulbecco's modified Eagle's medium supplemented with 10% fetal bovine serum and containing 500 µg per ml of geneticin. Individual clones were selected, lysed and assayed for luciferase production. […]

[2] = hamsters, 0.2% (w/w) in diet for one week (100 mg/kg/day), negative values = serum cholesterol increased relative to control
[3] = 15% luciferase activity cutoff point (footnote 2)
[4] = NA is not active, 30% luciferase activity cutoff point (footnote 1)
[5] = tests using 15% luciferase activity cutoff point (footnote 2)
[6] = 30% luciferase activity cutoff point (footnote 1)
[7] = tests using 30% luciferase activity cutoff point (footnote 1)

Row | Molecule | Serum Cholesterol Mean (Syrian Golden hamsters; hamsters) [mg/dL] | Emax [1, 4] [%] | RED [1, 6] | MED [1, 7] | also measured
1 | 4a-4-(2-propenyl)cholestan-3-one [Example 72] | 267 |  |  |  | Percent Lowering of Cholesterol from Control Value Mean (Syrian Golden hamsters; [2]): 20.8%
2 | C=CC[C@@H]1[C@H](O)CC[C@@]2(C)[C@H]1CC[C@@H]1[C@@H]2CC[C@]2(C)[C@@H]([C@H](C)CCCC(C)C)CC[C@@H]12 [(4), (3α,4α,5α,20β)-4-(2-propenyl)cholestan-3-ol] | 198 |  |  |  | Percent Lowering of Cholesterol from Control Value Mean (Syrian Golden hamsters; [2]): 41.4%
3 | CC(C)CCC[C@@H](C)[C@H]1CC[C@H]2[C@@H]3CCC4[C@H](Cc5ccccc5)C(=O)CC[C@]4(C)[C@H]3CC[C@]12C (some centres unmarked) [(5), 4a-benzylcholestan-3-one] | 202 |  |  |  | Percent Lowering of Cholesterol from Control Value Mean (Syrian Golden hamsters; [2]): 40.2%
4 | CC=CC[C@@H]1[C@@H](O)CC[C@@]2(C)[C@H]1CC[C@@H]1[C@@H]2CC[C@]2(C)[C@@H]([C@H](C)CCCC(C)C)CC[C@@H]12 [(12), (3β,4α,5α)-4-(2-butenyl)cholestan-3-ol] | 245 |  |  |  | inhibition in vivo at 100 mg/kg/day (Syrian Golden hamsters; [2]): 27.4%
5 | C=CC[C@H]1C2CC[C@H]3[C@@H]4CC[C@H]([C@@](C)(O)CCCC(C)C)[C@@]4(C)CC[C@@H]3[C@@]2(C)CC[C@H]1O (some centres unmarked) [(13), (3a,4a)-4-(2-propenyl)cholestane-3,20-diol] | 253 |  |  |  | inhibition in vivo at 100 mg/kg/day (Syrian Golden hamsters; [2]): 25.1%
6 | CC(C)CCC[C@@H](C)[C@H]1CC[C@H]2[C@@H]3CC[C@H]4[C@H](CC=C(Br)Br)[C@H](O)CC[C@]4(C)[C@H]3CC[C@]12C [(14), (3a,4a,5a)-4-(3,3-dibromo-2-propenyl)cholestan-3-ol] | 259 |  |  |  | inhibition in vivo at 100 mg/kg/day (Syrian Golden hamsters; [2]): 23.2%
7 | CC(C)CCC[C@@H](C)[C@H]1CC[C@H]2[C@@H]3CCC4[C@H](Cc5ccccc5)C(=O)CC[C@]4(C)[C@H]3CC[C@]12C (some centres unmarked) [(19), 4a-benzylcholestan-3-one] | 312 |  |  |  | Percent Lowering of Cholesterol from Control Value Mean (Syrian Golden hamsters; [2]): 7.5%
8 | C=CCC1C(=O)CC[C@@]2(C)C1CC[C@H]1[C@@H]3CC[C@H]([C@H](C)CCCC(C)C)[C@@]3(C)CC[C@@H]12 (some centres unmarked) [(21), 4-(2-propenyl)cholestan-3-one] | 330 |  |  |  | inhibition in vivo at 100 mg/kg/day (Syrian Golden hamsters; [2]): 2%
9 | CC(C)CCC[C@@H](C)[C@H]1CC[C@H]2[C@@H]3CC[C@H]4C[C@H](O)CC[C@]4(C)[C@H]3CC[C@]12C [(24), 5a-cholestan-3a-ol, reference compound] | 422 |  |  |  | inhibition in vivo at 100 mg/kg/day (Syrian Golden hamsters): -25%
10 | C=CC[C@H]1C2CC[C@@H]3[C@H](CC[C@]4(C)C(OCCCC(C)(C)C)CC[C@@H]34)[C@@]2(C)CC[C@H]1O (stereo partly drawn) [Example 69, (3α,4α)-17-[(4,4-dimethylpentyl)oxy]-4-(2-propenyl)-androstan-3-ol] |  | 39 | 16.4 and 8.2 |  | Emax [1, 3]: 48%; MA% [1, 4]: 47%; MED [1, 5]: 46.5; RED [1, 3]: 20.5
11 | C=CC[C@@H]1C(=O)/C(=C/O)C[C@]2(C)[C@H]3CC[C@]4(C)[C@@H]([C@H](C)CCCC(C)C)CC[C@H]4[C@@H]3CC[C@@H]12 [Example 73, 4a-2-(hydroxymethylene)-4-(2-propenyl)cholestan-3-one] |  |  |  |  | Emax [1, 3]: 27%; MED [1, 5]: 11.0; RED [1, 3]: 0.97
12 | CC(C)CCC[C@@H](C)[C@H]1CC[C@H]2[C@@H]3CC[C@H]4C[C@H](O)[C@H](Cc5ccc(F)cc5)C[C@]4(C)[C@H]3CC[C@]12C [Example 79, (2a, 3a, 5a)-2-[(4-fluorophenyl)methyl]cholestan-3-ol] |  | 29 | 5.4 | 40.3 | 
13 | C=CC[C@@H]1[C@@H](O)CC[C@@]2(C)[C@H]1CC[C@@H]1[C@@H]2CC[C@]2(C)[C@@H]([C@H](C)CCCC(C)C)CC[C@@H]12 [Example 80, (3β,4α,5α,20β)-4-(2-propenyl)cholestan-3-ol] | 269 |  |  |  | inhibition in vivo at 100 mg/kg/day (Syrian Golden hamsters; [2]): 20.2%
14 | CC(C)CCC[C@@H](C)[C@H]1CC[C@H]2[C@@H]3CC[C@H]4[C@H](CC=C(F)F)[C@H](O)CC[C@]4(C)[C@H]3CC[C@]12C [Example 85, (3a, 4a, 5a, 20β)-4-(3,3-difluoro-2-propenyl) cholestan-3-ol] |  | 138 | 0.36 | 2.7 | 
15 | C=C(C)C[C@@H]1[C@H](O)CC[C@@]2(C)[C@H]1CC[C@@H]1[C@@H]2CC[C@]2(C)[C@@H]([C@H](C)CCCC(C)C)CC[C@@H]12 [Example 89, (3a,4a,5a)-4-(2-methyl-2-propenyl)cholestan-3-ol] |  | 102 | 0.25 | 2.8 | 
16 | C=C(Cl)C[C@@H]1[C@H](O)CC[C@@]2(C)[C@H]1CC[C@@H]1[C@@H]2CC[C@]2(C)[C@@H]([C@H](C)CCCC(C)C)CC[C@@H]12 [Example 91, (3a,4a,5a)-4-(2-chloro-2-propenyl)cholestan-3-ol] |  | 96 | 0.24 | 2.7 | 
17 | C=C(Br)C[C@@H]1[C@H](O)CC[C@@]2(C)[C@H]1CC[C@@H]1[C@@H]2CC[C@]2(C)[C@@H]([C@H](C)CCCC(C)C)CC[C@@H]12 [Example 93, (3a,4a,5a)-4-(2-bromo-2-propenyl)cholestan-3-ol] |  | 131 | 0.43 | 4.9 | 
18 | C=CC[C@@H]1[C@H](O)CC[C@@]2(C)[C@H]1CC[C@@H]1[C@@H]2CC[C@]2(C)[C@@H]([C@H](C)CC[C@@H](CC)C(C)C)CC[C@@H]12 [Example 96, (3a, 4a, 5a)-4-(2-propenyl)-stigmastan-3-ol] |  | 93 | 0.73 | 8.3 | 
19 | C=CC[C@@H]1[C@H](O)CC[C@@]2(C)[C@H]1CC[C@@H]1[C@@H]2CC[C@]2(C)[C@@H]([C@H](C)/C=C/[C@@H](CC)C(C)C)CC[C@@H]12 [Example 98, (3a, 4a, 5a, 22E)-4-(2-propenyl)-stigmast-22-en-3-ol] |  | 66 | 2.0 | 22 | 
20 | [4a(E),5α]-4-(2-butenyl)-25-hydroxycholestan-3a-ol [Example 6] |  |  |  |  | MA% [1, 3]: 72% and 67%; MED [1, 5]: 21.7; RED [1, 3]: 0.96 and 1.90

From EP0562849A2, “Steroid derivatives” (priority 1992, dated 1993)
